target: T1, PASK (UniProt #Q96RG2; human recombinant N-terminal GST tagged construct, residues 879-1323) (Homo sapiens, UniProt Q96RG2); test: 33P-ATP radiometric PASK kinase assay (P81 phosphocellulose, scintillation counting); type: biochemical; conditions: Table 2, Myelin Basic Protein 20 μM, 120 min room temperature, average of all trials, read-out: IC50 Kinase Domain
T1 construct: N-terminal GST tagged construct, residues 879-1323; GST (N); made in house; host or cells: insect cells
Procedure: Purified PASK (UniProt #Q96RG2; human recombinant N-terminal GST tagged construct, residues 879-1323) from insect cells (final concentration 5 nM) is added to freshly prepared Base Reaction Buffer containing 20 mM Hepes (pH 7.5), 10 mM MgCl2, 1 mM EGTA, 0.02% Brij35, 0.02 mg/ml BSA, 0.1 mM Na3VO4, 2 mM DTT, 1% DMSO and Myelin Basic Protein (20 μM final). Test compounds in DMSO are then added and the mixture, followed by delivery of ^33P-ATP (specific activity 0.01 μCi/μl final) to initiate the reaction. The kinase reaction is incubated for 120 min at room temperature. The entire reaction mixture is washed through onto a P81 Phosphocellulose paper and washed three times for 10 minutes in 75 mM phosphoric acid and once in methanol prior to drying and scintillation counting. When the assay was repeated for a given compound, the activity data is based on the average of all trials.

T1 sequence (Q96RG2 879-1323, stated change not applied): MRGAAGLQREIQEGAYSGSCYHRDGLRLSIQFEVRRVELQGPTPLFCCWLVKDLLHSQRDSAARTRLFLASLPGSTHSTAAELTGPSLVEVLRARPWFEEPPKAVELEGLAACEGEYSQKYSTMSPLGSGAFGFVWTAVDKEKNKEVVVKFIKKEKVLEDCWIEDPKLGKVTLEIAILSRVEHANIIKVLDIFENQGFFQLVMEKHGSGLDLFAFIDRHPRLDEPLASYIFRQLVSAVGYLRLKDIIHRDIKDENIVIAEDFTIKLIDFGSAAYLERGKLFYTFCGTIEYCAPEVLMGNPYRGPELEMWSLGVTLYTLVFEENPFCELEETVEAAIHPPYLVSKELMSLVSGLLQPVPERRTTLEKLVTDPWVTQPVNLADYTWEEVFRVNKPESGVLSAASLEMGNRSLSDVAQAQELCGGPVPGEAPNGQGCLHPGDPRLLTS

Structure (SMILES) | IC50
O=C(O)c1ccc2nc(-c3ccccc3)c(-c3ccc(CO)cc3)nc2c1 [Example 34, 3-(4-(Hydroxymethyl)phenyl)-2-phenylquinoxaline-6-carboxylic acid] | ≤ 10 µM
O=C(O)c1ccc2nc(-c3ccccc3)c(-c3ccoc3)nc2c1 [Example 42, 3-(Furan-3-yl)-2-phenylquinoxaline-6-carboxylic acid] | ≤ 10 µM
COc1ccc(-c2nc3cc(C(=O)O)ccc3nc2-c2ccccc2)c(OC)c1 [Example 45, 3-(2,4-Dimethoxyphenyl)-2-phenylquinoxaline-6-carboxylic acid] | ≤ 10 µM
O=C(O)c1ccc2nc(-c3ccccc3)c(-c3ccc(O)cc3)nc2c1 [Example 44, 3-(4-Hydroxyphenyl)-2-phenylquinoxaline-6-carboxylic acid] | ≤ 10 µM
O=C(O)c1ccc2nc(-c3ccccc3)c(-c3ccc(Cl)cc3)nc2c1 [Example 30, 3-(4-Chlorophenyl)-2-phenylquinoxaline-6-carboxylic acid] | ≤ 10 µM
O=C(O)c1ccc2nc(-c3ccccc3)c(-c3ccc4ccccc4c3)nc2c1 [Example 18, 3-(Naphthalen-2-yl)-2-phenylquinoxaline-6-carboxylic acid] | ≤ 10 µM
O=C(O)c1cc2nc(-c3cccc(O)c3)c(-c3cccc(O)c3)nc2cc1O [Example 29, 7-Hydroxy-2,3-bis(3-hydroxyphenyl)quinoxaline-6-carboxylic acid] | ≥ 10 µM
Cc1cccc(-c2nc3cc(C(=O)O)ccc3nc2-c2ccccc2)c1 [Example 40, 2-Phenyl-3-m-tolylquinoxaline-6-carboxylic acid] | ≤ 10 µM
CCOc1ccc(-c2nc3cc(C(=O)O)ccc3nc2-c2ccccc2)cc1 [Example 16, 3-(4-Ethoxyphenyl)-2-phenylquinoxaline-6-carboxylic acid] | ≤ 10 µM
O=C(O)c1ccc2nc(-c3ccccc3)c(-c3ccc4c(c3)OCO4)nc2c1 [Example 20, 3-(Benzo[d][1,3]dioxol-5-yl)-2-phenylquinoxaline-6-carboxylic acid] | ≤ 10 µM
O=C(O)c1ccc2nc(-c3ccccc3)c(-c3ccccc3-c3ccccc3)nc2c1 [Example 24, 3-(Biphenyl-2-yl)-2-phenylquinoxaline-6-carboxylic acid] | ≥ 10 µM
O=C(O)c1ccc2nc(-c3ccccc3)c(-c3ccc(Br)cc3)nc2c1 [Example 31, 3-(4-Bromophenyl)-2-phenylquinoxaline-6-carboxylic acid] | ≤ 10 µM
COc1ccc(-c2nc3cc(C(=O)O)ccc3nc2-c2ccccc2)cc1 [Example 23, 3-(4-Methoxyphenyl)-2-phenylquinoxaline-6-carboxylic acid] | ≤ 10 µM
O=C(O)c1ccc2nc(-c3ccccc3)c(-c3cccc(OC(F)(F)F)c3)nc2c1 [Example 37, 2-Phenyl-3-(3-(trifluoromethoxy)phenyl)quinoxaline-6-carboxylic acid] | ≤ 10 µM
Cc1nc2cc(C(=O)O)ccc2nc1-c1ccccc1 [Example 14, 3-Methyl-2-phenylquinoxaline-6-carboxylic acid] | ≥ 10 µM
CCc1ccc(-c2nc3cc(C(=O)O)ccc3nc2-c2ccccc2)cc1 [Example 32, 3-(4-Ethylphenyl)-2-phenylquinoxaline-6-carboxylic acid] | ≤ 10 µM
O=C(O)c1ccc2nc(-c3ccccc3)c(-c3ccc([N+](=O)[O-])cc3)nc2c1 [Example 41, 3-(4-Nitrophenyl)-2-phenylquinoxaline-6-carboxylic acid] | ≤ 10 µM
O=C(O)c1cc2nc(-c3ccc(Cl)cc3)c(-c3ccc(Cl)cc3)nc2cc1O [Example 26, 2,3-Bis(4-chlorophenyl)-7-hydroxyquinoxaline-6-carboxylic acid] | ≥ 10 µM

Structure (SMILES) | IC50
COc1ccc(-c2nc3cc(C(=O)O)ccc3nc2-c2ccccc2)cc1OC [Example 17, 3-(3,4-Dimethoxyphenyl)-2-phenylquinoxaline-6-carboxylic acid] | ≤ 10 µM
O=C(O)c1ccc2nc(-c3ccccc3)c(-c3ccc(OC(F)(F)F)cc3)nc2c1 [Example 36, 2-Phenyl-3-(4-(trifluoromethoxy)phenyl)quinoxaline-6-carboxylic acid] | ≤ 10 µM
O=C(O)c1ccc2nc(-c3ccccc3)c(-c3cccc4ccccc34)nc2c1 [Example 19, 3-(Naphthalene-1-yl)-2-phenylquinoxaline-6-carboxylic acid] | ≤ 10 µM
O=C(O)c1ccc2nc(-c3ccco3)c(-c3ccccc3)nc2c1 [Example 12, 2-(Furan-2-yl)-3-phenylquinoxaline-6-carboxylic acid] | ≤ 10 µM
O=C(O)c1cc2nc(-c3ccc(O)cc3)c(-c3ccc(O)cc3)nc2cc1O [Example 28, 7-Hydroxy-2,3-bis(4-hydroxyphenyl)quinoxaline-6-carboxylic acid] | ≤ 10 µM
Cc1ccc(-c2nc3cc(C(=O)O)ccc3nc2-c2ccccc2)cc1 [Example 15, 2-Phenyl-3-p-tolylquinoxaline-6-carboxylic acid] | ≤ 10 µM
COc1ccc(-c2nc3cc(O)c(C(=O)O)cc3nc2-c2ccc(OC)cc2)cc1 [Example 27, 7-Hydroxy-2,3-bis(4-methoxyphenyl)quinoxaline-6-carboxylic acid] | ≤ 10 µM
Cc1ccccc1-c1nc2cc(C(=O)O)ccc2nc1-c1ccccc1 [Example 39, 2-Phenyl-3-o-tolylquinoxaline-6-carboxylic acid] | ≤ 10 µM
O=C(O)c1ccc2nc(-c3ccccc3)c(-c3ccc(-c4ccccc4)cc3)nc2c1 [Example 47, 2-Phenyl-3-(4-phenyl-phenyl)quinoxaline-6-carboxylic acid] | ≤ 10 µM
O=C(O)c1ccc2nc(-c3ccccc3)c(-c3ccsc3)nc2c1 [Example 43, 2-Phenyl-3-(thiophen-3-yl)quinoxaline-6-carboxylic acid] | ≤ 10 µM
O=C(O)c1cc2nc(-c3ccc(F)cc3)c(-c3ccc(F)cc3)nc2cc1O [Example 25, 2,3-Bis(4-fluorophenyl)-7-hydroxyquinoxaline-6-carboxylic acid] | ≤ 10 µM
O=C(O)c1ccc2nc(-c3ccccc3)c(-c3ccc(C(F)(F)F)cc3)nc2c1 [Example 13, 2-Phenyl-3-(4-(trifluoromethyl)phenyl)quinoxaline-6-carboxylic acid] | ≤ 10 µM
O=C(O)c1ccc2nc(-c3ccccc3)c(-c3cccc(F)c3)nc2c1 [Example 38, 3-(3-Fluorophenyl)-2-phenylquinoxaline-6-carboxylic acid] | ≤ 10 µM
CCc1nc2cc(C(=O)O)ccc2nc1-c1ccccc1 [Example 48, 3-Ethyl-2-phenylquinoxaline-6-carboxylic acid] | ≥ 10 µM
O=C(O)c1ccc2nc(-c3ccccc3)c(-c3cccc(O)c3)nc2c1 [Example 46, 3-(3-Hydroxyphenyl)-2-phenylquinoxaline-6-carboxylic acid] | ≤ 10 µM
O=C(O)c1ccc2nc(-c3ccccc3)c(-c3ccncc3)nc2c1 [Example 21, 2-Phenyl-3-(pyridin-4-yl)quinoxaline-6-carboxylic acid] | ≤ 10 µM
O=C(O)c1ccc(-c2nc3cc(C(=O)O)ccc3nc2-c2ccccc2)cc1 [Example 35, 3-(4-Carboxyphenyl)-2-phenylquinoxaline-6-carboxylic acid] | ≥ 10 µM
N#Cc1ccc(-c2nc3cc(C(=O)O)ccc3nc2-c2ccccc2)cc1 [Example 22, 3-(4-Cyanophenyl)-2-phenylquinoxaline-6-carboxylic acid] | ≤ 10 µM

target: T2, hPASK Kinase Domain (Homo sapiens, UniProt Q96RG2); test: Biochemical Assay for hPASK Activity (Kinase-Glo Luminescent Kinase Assay), kinase domain; conditions: Table 1, second part (Examples 33-59)
T2 construct: made in house; host or cells: insect cells
T2 sequence (Q96RG2 999-1251 limits assumed): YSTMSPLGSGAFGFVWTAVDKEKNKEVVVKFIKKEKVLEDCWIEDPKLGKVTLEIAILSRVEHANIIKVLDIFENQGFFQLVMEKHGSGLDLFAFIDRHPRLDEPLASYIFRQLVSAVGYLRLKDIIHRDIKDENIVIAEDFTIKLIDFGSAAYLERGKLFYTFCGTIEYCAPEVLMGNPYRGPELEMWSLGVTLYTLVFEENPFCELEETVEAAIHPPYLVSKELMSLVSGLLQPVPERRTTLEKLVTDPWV
Procedure: The assay for purified hPASK activity utilizes the Kinase-Glo Luminescent Kinase Assay (Promega), which quantifies the amount of ATP remaining in solution following kinase reaction. The assay is carried out in a 96-well plate format and is performed by adding a volume of Kinase-Glo Reagent (Promega, catalog #V3771) equal to the volume of solution in the well of a completed kinase reaction. Kinase-Glo reagent contains Luciferase and its substrate. After addition to a kinase reaction it allows to measure luminescence. The amount of ATP left in solution at the time of Kinase-Glo Plus addition is directly proportional to the luminescence that is measured in each well, and inversely correlated with kinase activity.
Purified hPASK from insect cells (0.02 μg) is added to a 50 μL reaction mix containing 40 mM Hepes (pH 7.0), 100 mM KCl, 5 mM MgCl2, 1 mM DTT and 1 ug of MBP protein. Inhibitory compounds are then added and the mixture is incubated for 10 min at 25° C. before adding 5 μL of ATP (at desired concentration). The reaction is allowed to proceed at 25° C. for 1 hour before adding 50 μL of Kinase-Glo reagent. The luminescence is measured as soon as 10 minutes after Kinase-Glo reagent is added.

Structure (SMILES) | IC50
COc1ccc(-c2nc3ccc(S(=O)(=O)N4CCOCC4)cc3nc2-c2ccc(OC)cc2)cc1 [Example 55, 2,3-Bis(4-methoxyphenyl)-6-(morpholinosulfonyl)quinoxaline] | ≤ 10 µM
CNS(=O)(=O)c1ccc2nc(-c3ccc(OC)cc3)c(-c3ccc(OC)cc3)nc2c1 [Example 54, 2,3-Bis(4-methoxyphenyl)-N-methylquinoxaline-6-sulfonamide] | ≥ 10 µM
CCc1ccc(-c2nc3ccc(C(=O)NOC)cc3nc2-c2ccc(CC)cc2)cc1 [Example 59, 2,3-Bis(4-ethylphenyl)-N-methoxyquinoxaline-6-carboxamide] | ≤ 10 µM
O=C(O)c1cccc(-c2nc3cc(C(=O)O)ccc3nc2-c2ccccc2)c1 [Example 50, 3-(3-Carboxyphenyl)-2-phenylquinoxaline-6-carboxylic acid] | ≤ 10 µM
COc1ccc(-c2nc3ccc(/C=C/C(=O)O)cc3nc2-c2ccc(OC)cc2)cc1 [Example 56, (E)-3-(2,3-bis(4-methoxyphenyl)quinoxalin-6-yl)acrylic acid] | ≥ 10 µM

Reference: patent US9370522B2, “Heterocyclic compounds for the inhibition of PASK” (BioEnergenix, LLC, priority 2009, dated 2016)
